# Measurements reported in US20240409585A1, “MACROCYCLIC IMMUNOMODULATORS” (priority 2021, published 2024).
# Bridge positions count the residues as written; N and C are the ends. Square brackets hold non-standard residues; d marks the D form. Peptide text beside a SMILES is read from it. * marks the point of attachment. ξ: configuration not given here. Tyr(3-NO2) = N[C@@H](Cc1ccc(O)c([N+](=O)[O-])c1)C(=O)O; Phe(4-COOH) = N[C@@H](Cc1ccc(C(=O)O)cc1)C(=O)O; Bip = N[C@@H](Cc1ccc(-c2ccccc2)cc1)C(=O)O; Phe(3-Me) = Cc1cccc(C[C@H](N)C(=O)O)c1; Phe(4-F) = N[C@@H](Cc1ccc(F)cc1)C(=O)O; Val(3-OH) = CC(C)(O)[C@H](N)C(=O)O; 3Pal = N[C@@H](Cc1cccnc1)C(=O)O; 2Thi = N[C@@H](Cc1cccs1)C(=O)O; Cha = N[C@@H](CC1CCCCC1)C(=O)O; Cit = NC(=O)NCCC[C@H](N)C(=O)O; Ile(3ξ) = CCC(C)[C@H](N)C(=O)O; Thr(3ξ) = CC(O)[C@H](N)C(=O)O; Carboxymethyl = O=C(O)C*; NMeA = CN[C@@H](C)C(=O)O; Nle = CCCC[C@H](N)C(=O)O; Orn = NCCC[C@H](N)C(=O)O; Dab = NCC[C@H](N)C(=O)O; Piv = CC(C)(C)C(=O)*
# Molecular target: T1, PE-labeled human PD-L1-Ig binding to Jurkat cell line over-expressing human PD-1 (Jurkat-PD-1) (Homo sapiens, UniProt Q15116)
# T1 construct: expressed in transfected cells; host or cells: Jurkat
# T1 sequence (Q15116 25-288): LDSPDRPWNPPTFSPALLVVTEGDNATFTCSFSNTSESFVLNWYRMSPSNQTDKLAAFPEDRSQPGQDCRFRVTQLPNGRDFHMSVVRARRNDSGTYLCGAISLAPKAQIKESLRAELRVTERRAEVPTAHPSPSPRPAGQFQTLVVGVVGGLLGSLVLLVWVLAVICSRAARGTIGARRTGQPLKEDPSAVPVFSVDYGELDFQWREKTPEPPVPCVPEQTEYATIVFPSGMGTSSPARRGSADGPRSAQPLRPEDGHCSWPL
# Experiment: Jurkat-PD-1 Cell Binding High-Content Screening Assay (CBA): Method 1
# Conditions: Jurkat-hPD-1 cells, PE-labeled PD-L1-Ig 20 nM final; read-out: Jurkat HPDL1 PD1 IC50 (uM) (Method 1)
row,IC50,Structure (SMILES)
1,0.01 µM,CC(C)C[C@@H]1NC(=O)[C@H](CCN)NC(=O)[C@@H](CC(C)C)NC(=O)[C@H](C)N(C)C(=O)[C@H](CCCNC(N)=O)NC(=O)[C@H](Cc2ccc(-c3ccccc3)cc2)NC(=O)[C@H](C(C)C)NC(=O)[C@H](Cc2c[nH]c3ccccc23)NC(=O)[C@H](CC(=O)O)NC(=O)[C@H](Cc2ccc(O)c([N+](=O)[O-])c2)NC(=O)[C@H](Cc2cccnc2)NC(=O)CSC[C@@H](C(=O)N[C@@H](C)C(N)=O)NC(=O)[C@H]([C@@H](C)O)NC(=O)[C@H](C(C)C)NC1=O [Compound 1338] ({CH2CO}-[3Pal][Tyr(3-NO2)]DWV[Bip][Cit][NMeA][dL][Dab]LVTCA-NH2; thioether N-14)
2,0.02 µM,CC(C)C[C@@H]1NC(=O)[C@H](CCN)NC(=O)[C@@H](CC(C)C)NC(=O)[C@H]2CCCN2C(=O)[C@H](C(C)C)NC(=O)[C@H](Cc2ccc(-c3ccccc3)cc2)NC(=O)[C@H](C(C)C)NC(=O)[C@H](Cc2c[nH]c3ccccc23)NC(=O)[C@H](CC(=O)O)NC(=O)[C@H](Cc2ccc(O)cc2)NC(=O)[C@H](CC(N)=O)NC(=O)CSC[C@@H](C(=O)N[C@@H](C)C(N)=O)NC(=O)[C@H]([C@@H](C)O)NC(=O)[C@H](C(C)C)NC1=O [Compound 1279] ({CH2CO}-NYDWV[Bip]V[dP][dL][Dab]LVTCA-NH2; thioether N-14)
3,0.04 µM,CC(C)C[C@@H]1NC(=O)[C@H](CCCNC(=N)N)NC(=O)[C@@H](Cc2ccccc2)NC(=O)[C@H](C)N(C)C(=O)[C@H](CCCNC(=N)N)NC(=O)[C@H](Cc2ccc(-c3ccccc3)cc2)NC(=O)[C@H](C(C)C)NC(=O)[C@H](Cc2c[nH]c3ccccc23)NC(=O)[C@H](CC(=O)O)NC(=O)[C@H](Cc2ccc(O)cc2)NC(=O)[C@H](Cc2cnc[nH]2)NC(=O)CSC[C@@H](C(=O)N[C@@H](C)C(N)=O)NC(=O)[C@H](CO)NC(=O)[C@H](C(C)C)NC1=O [Compound 1044] ({CH2CO}-HYDWV[Bip]R[NMeA][dF]RLVSCA-NH2; thioether N-14)
4,0.02 µM,CC(C)C[C@@H]1NC(=O)[C@H](Cc2c[nH]c3ccccc23)NC(=O)[C@H](CC(=O)O)NC(=O)[C@H](Cc2ccc(O)cc2)NC(=O)[C@H](Cc2ccccc2)NC(=O)CSC[C@@H](C(=O)N[C@@H](C)C(N)=O)NC(=O)[C@H](CO)NC(=O)[C@H](C(C)C)NC(=O)[C@H](CC(C)C)NC(=O)[C@H](CCCCN)NC(=O)[C@@H](C)NC(=O)[C@H](C)N(C)C(=O)[C@H](C(C)C)NC(=O)[C@H](Cc2ccc(-c3ccccc3)cc2)NC1=O [Compound 1748] ({CH2CO}-FYDWL[Bip]V[NMeA][dA]KLVSCA-NH2; thioether N-14)
5,0.07 µM,CC(C)C[C@@H]1NC(=O)[C@H](CCN)NC(=O)[C@@H](CC(C)C)NC(=O)[C@H](C)N(C)C(=O)[C@H](CCCNC(N)=O)NC(=O)[C@H](Cc2ccc(-c3ccccc3)cc2)NC(=O)[C@H](C(C)C)NC(=O)[C@H](Cc2c[nH]c3ccccc23)NC(=O)[C@H](CC(=O)O)NC(=O)[C@H](Cc2ccc(O)cc2)NC(=O)[C@H](CCN)NC(=O)CSC[C@@H](C(=O)N[C@@H](C)C(N)=O)NC(=O)[C@H]([C@@H](C)O)NC(=O)[C@H](C(C)C)NC1=O [Compound 1346] ({CH2CO}-[Dab]YDWV[Bip][Cit][NMeA][dL][Dab]LVTCA-NH2; thioether N-14)
6,0.05 µM,Cc1cccc(C[C@@H]2NC(=O)[C@H](CC(=O)O)NC(=O)[C@H](Cc3ccc(OCC(=O)O)cc3)NC(=O)[C@H](C(C)O)NC(=O)CSC[C@@H](C(=O)N[C@@H](CCNC(=O)C(C)(C)C)C(N)=O)NC(=O)[C@H](Cc3cnc[nH]3)NC(=O)[C@H](C(C)(C)O)NC(=O)[C@H](CC3CCCCC3)NC(=O)[C@H](CCN)NC(=O)[C@@H](CC(C)C)NC(=O)[C@H](C)N(C)C(=O)[C@H](Cc3ccc(OCC(=O)O)cc3)NC(=O)[C@H](Cc3ccc(-c4ccccc4)cc3)NC(=O)[C@H](Cc3ccc(C(=O)O)cc3)NC2=O)c1 (stereo partly drawn) [Compound 2164] ({CH2CO}-[Thr(3ξ)]Y(Carboxymethyl)D[Phe(3-Me)][Phe(4-COOH)][Bip]Y(Carboxymethyl)[NMeA][dL][Dab][Cha][Val(3-OH)]HC[Dab](Piv)-NH2; thioether N-14)
7,0.05 µM,Cc1cccc(C[C@@H]2NC(=O)[C@H](CC(=O)O)NC(=O)[C@H](Cc3ccc(OCC(=O)O)cc3)NC(=O)[C@H](CC(N)=O)NC(=O)CSC[C@@H](C(N)=O)NC(=O)[C@H](CC(N)=O)NC(=O)[C@H](C(C)C)NC(=O)[C@H](CC3CCCCC3)NC(=O)[C@H](CCN)NC(=O)[C@@H](CC(C)C)NC(=O)[C@H](C)N(C)C(=O)[C@H](Cc3ccc(OCC(=O)O)cc3)NC(=O)[C@H](Cc3ccc(-c4ccccc4)cc3)NC(=O)[C@H](Cc3ccc(OCC(=O)O)cc3)NC2=O)c1 [Compound 1664] ({CH2CO}-NY(Carboxymethyl)D[Phe(3-Me)]Y(Carboxymethyl)[Bip]Y(Carboxymethyl)[NMeA][dL][Dab][Cha]VNC-NH2; thioether N-14)
8,0.07 µM,CC(C)C[C@@H]1NC(=O)[C@H](CCCNC(=N)N)NC(=O)[C@@H](Cc2ccc(O)cc2)NC(=O)[C@H](C)N(C)C(=O)[C@H](CCCNC(=N)N)NC(=O)[C@H](Cc2ccc(-c3ccccc3)cc2)NC(=O)[C@H](C(C)C)NC(=O)[C@H](Cc2c[nH]c3ccccc23)NC(=O)[C@H](CC(=O)O)NC(=O)[C@H](Cc2ccc(O)cc2)NC(=O)[C@H](Cc2ccccc2)NC(=O)CSC[C@@H](C(=O)NCC(N)=O)NC(=O)[C@H](CO)NC(=O)[C@H](C(C)C)NC1=O [Compound 1020] ({CH2CO}-FYDWV[Bip]R[NMeA][dY]RLVSCG-NH2; thioether N-14)
9,0.01 µM,CCNC(=O)[C@H](CCN)NC(=O)[C@@H]1CSCC(=O)N[C@@H](Cc2ccc(OCC(=O)O)cc2)C(=O)N[C@@H](Cc2ccc(OCC(=O)O)cc2)C(=O)N[C@@H](CC(=O)O)C(=O)N[C@@H](Cc2cccc(C)c2)C(=O)N[C@@H](C(C)C)C(=O)N[C@@H](Cc2ccc(-c3ccccc3)cc2)C(=O)N[C@@H](Cc2ccc(O)cc2)C(=O)N(C)[C@@H](C)C(=O)N[C@H](CC(C)C)C(=O)N[C@@H](CCN)C(=O)N[C@@H](CC2CCCCC2)C(=O)N[C@@H](C(C)C)C(=O)N[C@@H](CCCN)C(=O)N1 [Compound 1870] ({CH2CO}-Y(Carboxymethyl)Y(Carboxymethyl)D[Phe(3-Me)]V[Bip]Y[NMeA][dL][Dab][Cha]V[Orn]C[Dab]-NHEt; thioether N-14)
10,0.01 µM,Cc1cccc(C[C@@H]2NC(=O)[C@H](CC(=O)O)NC(=O)[C@H](Cc3ccc(C(=O)O)cc3)NC(=O)[C@H](Cc3ccc(F)cc3)NC(=O)CSC[C@@H](C(=O)N[C@@H](CCN)C(N)=O)NC(=O)[C@H](CCC(=O)O)NC(=O)[C@H](C(C)(C)O)NC(=O)[C@H](CC3CCCCC3)NC(=O)[C@H](CCN)NC(=O)[C@@H](CC(C)C)NC(=O)[C@H](C)N(C)C(=O)[C@H](Cc3ccc(C(=O)O)cc3)NC(=O)[C@H](Cc3ccc(-c4ccccc4)cc3)NC(=O)[C@H](Cc3ccc(C(=O)O)cc3)NC2=O)c1 [Compound 2207] ({CH2CO}-[Phe(4-F)][Phe(4-COOH)]D[Phe(3-Me)][Phe(4-COOH)][Bip][Phe(4-COOH)][NMeA][dL][Dab][Cha][Val(3-OH)]EC[Dab]-NH2; thioether N-14)
11,0.03 µM,CC(C)C[C@@H]1NC(=O)[C@H](CCN)NC(=O)[C@@H](CC(C)C)NC(=O)[C@H](C)N(C)C(=O)[C@H](CCCNC(N)=O)NC(=O)[C@H](Cc2ccc(-c3ccccc3)cc2)NC(=O)[C@H](C(C)C)NC(=O)[C@H](Cc2c[nH]c3ccccc23)NC(=O)[C@H](CC(=O)O)NC(=O)[C@H](Cc2ccc(O)cc2)NC(=O)[C@H](Cc2ccc(OCC(=O)O)cc2)NC(=O)CSC[C@@H](C(=O)N[C@@H](C)C(N)=O)NC(=O)[C@H]([C@@H](C)O)NC(=O)[C@H](C(C)C)NC1=O [Compound 1324] ({CH2CO}-Y(Carboxymethyl)YDWV[Bip][Cit][NMeA][dL][Dab]LVTCA-NH2; thioether N-14)
12,0.26 µM,CC(C)C[C@@H]1NC(=O)[C@H](CC(N)=O)NC(=O)[C@@H](CC(C)C)NC(=O)[C@H](C)N(C)C(=O)[C@H](C(C)C)NC(=O)[C@H](Cc2ccc(-c3ccccc3)cc2)NC(=O)[C@H](CCN)NC(=O)[C@H](Cc2c[nH]c3ccccc23)NC(=O)[C@H](CC(=O)O)NC(=O)[C@H](Cc2ccc(O)cc2)NC(=O)[C@H](Cc2ccccc2)NC(=O)CSC[C@@H](C(=O)N[C@@H](C)C(N)=O)NC(=O)[C@H](CO)NC(=O)[C@H](C(C)C)NC1=O [Compound 2025] ({CH2CO}-FYDW[Dab][Bip]V[NMeA][dL]NLVSCA-NH2; thioether N-14)
13,0.06 µM,CCCC[C@@H]1NC(=O)[C@H](Cc2c[nH]c3ccccc23)NC(=O)[C@H](CC(=O)O)NC(=O)[C@H](Cc2ccc(OCC(=O)O)cc2)NC(=O)[C@H](C(C)O)NC(=O)CSC[C@@H](C(=O)N[C@@H](CC(N)=O)C(=O)O)NC(=O)[C@H](CO)NC(=O)[C@H](C(C)C)NC(=O)[C@H](CC(C)C)NC(=O)[C@H](CCN)NC(=O)[C@@H](CC(C)C)NC(=O)[C@H](C)N(C)C(=O)[C@H](C(C)CC)NC(=O)[C@H](Cc2ccc(-c3ccccc3)cc2)NC1=O (stereo partly drawn) [Compound 2221] ({CH2CO}-[Thr(3ξ)]Y(Carboxymethyl)DW[Nle][Bip][Ile(3ξ)][NMeA][dL][Dab]LVSCN-OH; thioether N-14)
14,0.02 µM,CCC(C)[C@@H]1NC(=O)[C@H](Cc2ccc(-c3ccccc3)cc2)NC(=O)[C@H](CC(C)C)NC(=O)[C@H](Cc2c[nH]c3ccccc23)NC(=O)[C@H](CC(=O)O)NC(=O)[C@H](Cc2ccc(C(=O)O)cc2)NC(=O)[C@H](Cc2ccc(OCC(=O)O)cc2)NC(=O)CSC[C@@H](C(=O)N[C@@H](CO)C(N)=O)NC(=O)[C@H](CO)NC(=O)[C@H](C(C)C)NC(=O)[C@H](CC2CCCCC2)NC(=O)[C@H](CCN)NC(=O)[C@@H](CC(C)C)NC(=O)[C@H](C)N(C)C1=O (stereo partly drawn) [Compound 1929] ({CH2CO}-Y(Carboxymethyl)[Phe(4-COOH)]DWL[Bip][Ile(3ξ)][NMeA][dL][Dab][Cha]VSCS-NH2; thioether N-14)
15,0.26 µM,CC(C)C[C@@H]1NC(=O)[C@H](CCN)NC(=O)[C@@H](CC(C)C)NC(=O)[C@H](C)N(C)C(=O)[C@H](CCCNC(=N)N)NC(=O)[C@H](Cc2ccc(-c3ccccc3)cc2)NC(=O)[C@H](C(C)C)NC(=O)[C@H](Cc2cccs2)NC(=O)[C@H](CC(=O)O)NC(=O)[C@H](Cc2ccc(O)cc2)NC(=O)[C@H](CC(N)=O)NC(=O)CSC[C@@H](C(=O)N[C@@H](C)C(N)=O)NC(=O)[C@H]([C@@H](C)O)NC(=O)[C@H](C(C)C)NC1=O [Compound 1219] ({CH2CO}-NYD[2Thi]V[Bip]R[NMeA][dL][Dab]LVTCA-NH2; thioether N-14)
